From patent publication US12521375B2, “Pharmaceutical composition for treating fatty liver disease” (Shionogi & Co., Ltd., priority 2020, dated 2026)
Where two headings read alike, the source gives them in different places.

Tests used:
recombinant human ACC1 = recombinant human ACC1 (Homo sapiens (Human), UniProt Q13085); assay: Measurement of inhibitory activity of human ACC1; format: biochemical; conditions: read-out: IC50 hACC1
Text: A cDNA encoding human ACC1 protein (1 amino acid residue to 2346 amino acid residues from the N-terminus) was cloned from a human liver cDNA library (BioChain Institute Inc.), myc tag and His-tag sequences were introduced at the 3′ end, and then inserted into pIEXBAC3 (Novagen). A recombinant baculovirus was produced in accordance with the protocol for FlashBACGOLD (Oxford Expression Technologies Ltd.), and Sf-9 cells were infected therewith to express human ACC1 protein. The recovered cells were crushed, filtered through a filter, and then subjected to Ni affinity chromatography and anion exchange chromatography. Fractions containing human ACC1 protein were collected to obtain recombinant human ACC1.
(§1) The recombinant human ACC1 and the recombinant human ACC2 obtained from the above Preparation Examples were preincubated in an assay buffer (50 mM HEPES-KOH (pH 7.4), 10 mM magnesium chloride, 6 to 10 mM potassium citrate, 4 mM reduced glutathione, and 1.5 mg/ml bovine serum albumin) for 1 hour. Then, 5 μL of the pre-incubated enzyme solution and 5 μL of a substrate solution (50 mM HEPES-KOH (pH 7.4), 1 mM ATP, 0.8 mM acetyl-CoA, and 25 to 50 mM potassium bicarbonate) were added to a 384-well microplate into which 0.2 μL of each of solutions of the compound of the present invention (DMSO) had been dispensed, and the mixture was centrifuged and shaken, and then incubated in a wet box at room temperature for 1 to 3 hours. After incubation, the enzymatic reaction was stopped by addition of EDTA, and then the compound was co-crystallized with an α-cyano-4-hydroxy cinnamic acid (CHCA) matrix on a MALDI target plate, and measurement was performed in a reflector negative mode using a matrix-assisted laser desorption ionization-time-of-flight mass spectrometer (MALDI-TOF MS). Deprotonated ions of the substrate acetyl-CoA (AcCoA) and the reaction product malonyl-CoA (MalCoA) were detected, and the intensity of each signal was used to calculate a conversion rate to malonyl-CoA […], i.e., intensity of [MalCoA-H]-/(intensity of [MalCoA-H]-+intensity of [AcCoA-H]-). […] The potassium citrate concentration in the assay buffer, the potassium bicarbonate concentration in the substrate solution, and the incubation time were adjusted within the above concentrations or reaction times for each lot of the enzyme to be used.

recombinant human ACC2 = recombinant human ACC2 (Homo sapiens (Human), UniProt O00763); assay: Measurement of inhibitory activity of human ACC2; format: biochemical; conditions: read-out: IC50 hACC2
Chain of recombinant human ACC2 (O00763 27-2458): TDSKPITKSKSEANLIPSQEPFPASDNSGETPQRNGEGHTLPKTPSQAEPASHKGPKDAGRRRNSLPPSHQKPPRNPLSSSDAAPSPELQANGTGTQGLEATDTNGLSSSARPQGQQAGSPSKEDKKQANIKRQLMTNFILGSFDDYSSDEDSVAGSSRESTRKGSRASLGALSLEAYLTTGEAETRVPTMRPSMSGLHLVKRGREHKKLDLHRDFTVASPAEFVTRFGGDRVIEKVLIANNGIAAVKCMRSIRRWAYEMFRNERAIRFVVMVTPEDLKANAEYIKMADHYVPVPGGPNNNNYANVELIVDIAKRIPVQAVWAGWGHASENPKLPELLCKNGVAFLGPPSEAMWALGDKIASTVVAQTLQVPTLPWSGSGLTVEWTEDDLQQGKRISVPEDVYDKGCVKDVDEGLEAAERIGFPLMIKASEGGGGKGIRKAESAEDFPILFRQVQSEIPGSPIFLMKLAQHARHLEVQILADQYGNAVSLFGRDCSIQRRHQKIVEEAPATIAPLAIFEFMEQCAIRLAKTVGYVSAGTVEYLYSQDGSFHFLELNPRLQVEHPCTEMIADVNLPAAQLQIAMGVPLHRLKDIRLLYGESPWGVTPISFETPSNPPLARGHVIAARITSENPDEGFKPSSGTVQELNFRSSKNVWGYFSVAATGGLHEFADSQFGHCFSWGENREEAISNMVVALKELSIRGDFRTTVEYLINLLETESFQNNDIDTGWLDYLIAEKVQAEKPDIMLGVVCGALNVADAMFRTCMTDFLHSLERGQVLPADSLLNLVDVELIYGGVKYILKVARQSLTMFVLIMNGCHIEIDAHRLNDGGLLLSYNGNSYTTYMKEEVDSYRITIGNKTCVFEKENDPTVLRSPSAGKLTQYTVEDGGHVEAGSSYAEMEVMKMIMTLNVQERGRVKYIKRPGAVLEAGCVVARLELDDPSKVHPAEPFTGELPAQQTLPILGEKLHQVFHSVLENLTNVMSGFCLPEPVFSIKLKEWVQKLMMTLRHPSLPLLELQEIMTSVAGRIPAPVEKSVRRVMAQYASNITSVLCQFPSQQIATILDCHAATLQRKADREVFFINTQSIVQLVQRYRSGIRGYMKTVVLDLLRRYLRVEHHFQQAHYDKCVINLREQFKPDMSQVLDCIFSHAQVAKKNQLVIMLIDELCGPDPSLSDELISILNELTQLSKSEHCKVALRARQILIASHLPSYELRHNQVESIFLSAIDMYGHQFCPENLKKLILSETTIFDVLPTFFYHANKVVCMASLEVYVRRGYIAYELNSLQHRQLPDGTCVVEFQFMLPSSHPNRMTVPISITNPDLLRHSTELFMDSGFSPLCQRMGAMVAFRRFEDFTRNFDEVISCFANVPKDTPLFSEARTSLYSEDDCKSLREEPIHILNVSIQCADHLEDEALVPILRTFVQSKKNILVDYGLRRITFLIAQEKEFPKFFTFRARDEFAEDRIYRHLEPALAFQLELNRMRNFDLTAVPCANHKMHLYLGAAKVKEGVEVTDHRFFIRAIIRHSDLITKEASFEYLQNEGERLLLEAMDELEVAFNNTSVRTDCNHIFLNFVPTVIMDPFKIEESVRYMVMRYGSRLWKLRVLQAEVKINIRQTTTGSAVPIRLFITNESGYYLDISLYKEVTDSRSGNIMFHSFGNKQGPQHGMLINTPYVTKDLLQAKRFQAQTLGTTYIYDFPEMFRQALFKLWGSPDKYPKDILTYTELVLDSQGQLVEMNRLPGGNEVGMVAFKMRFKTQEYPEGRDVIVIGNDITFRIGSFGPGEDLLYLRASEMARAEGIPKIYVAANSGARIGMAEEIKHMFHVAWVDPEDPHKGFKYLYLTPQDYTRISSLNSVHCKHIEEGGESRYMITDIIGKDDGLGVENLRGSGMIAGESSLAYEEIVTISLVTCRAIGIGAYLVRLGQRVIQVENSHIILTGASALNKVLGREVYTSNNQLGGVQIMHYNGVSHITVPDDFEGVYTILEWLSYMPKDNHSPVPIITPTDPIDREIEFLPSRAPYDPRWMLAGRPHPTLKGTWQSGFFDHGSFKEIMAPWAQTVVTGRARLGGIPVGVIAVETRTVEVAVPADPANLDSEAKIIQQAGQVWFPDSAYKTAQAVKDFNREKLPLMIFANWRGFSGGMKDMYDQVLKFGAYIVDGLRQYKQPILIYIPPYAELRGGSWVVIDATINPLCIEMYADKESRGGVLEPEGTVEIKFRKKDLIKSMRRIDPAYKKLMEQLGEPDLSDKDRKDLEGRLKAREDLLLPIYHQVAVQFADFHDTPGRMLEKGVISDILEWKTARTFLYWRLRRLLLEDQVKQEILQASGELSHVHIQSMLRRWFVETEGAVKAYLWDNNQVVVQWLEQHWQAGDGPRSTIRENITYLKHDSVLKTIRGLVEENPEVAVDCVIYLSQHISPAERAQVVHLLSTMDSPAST
Text: A cDNA encoding human ACC2 protein (27 amino acid residues to 2458 amino acid residues from the N-terminus) was cloned from a human kidney cDNA library (Clontech Laboratories, Inc.), a His-tag sequence was introduced at the 5′ end, and then inserted into pFastBac1 (Invitrogen). A recombinant baculovirus was produced in accordance with the protocol for a Bac-to-Bac baculovirus expression system (Invitrogen), and Sf-9 cells were infected therewith to express human ACC2 protein. The recovered cells were crushed, filtered through a filter, and then subjected to Ni affinity chromatography and anion exchange chromatography. Fractions containing human ACC2 protein were collected to obtain recombinant human ACC2.
as §1, with “Then, 5 μL of the pre-incubated enzyme solution and 5 μL of a substrate solution (50 mM HEPES-KOH (pH 7.4), 1 mM ATP, 0.8 mM acetyl-CoA, and 25 to 50 mM potassium bicarbonate) were added to a 384-well microplate into which 0.2 μL of each of solutions of the compound of the present invention (DMSO) had been dispensed, and the mixture was centrifuged and shaken, and then incubated in a wet box at room temperature for 1 to 3 hours.” left out

[1] = Metabolic stability test (human); format: in vitro ADME; conditions: human liver microsomes, 37° C., 30 minutes, NADPH
Procedure: (§2) Commercially available pooled human liver microsomes were reacted with the compound of the present invention for a given time. A residual rate was calculated by comparison between the reacted sample and the unreacted sample to evaluate a degree at which the compound of the present invention is metabolized in the liver.
(§3) The compound was reacted at 37° C. for 0 minutes or 30 minutes in the presence of 1 mmol/L NADPH in 0.2 mL of a buffer (50 mmol/L Tris-HCl pH 7.4, 150 mmol/L potassium chloride, and 10 mmol/L magnesium chloride) containing 0.5 mg protein/mL of the human liver microsomes (oxidative reaction). After the reaction, 50 μL of the reaction solution was added to 100 μL of a solution of methanol/acetonitrile=1/1 (v/v) and mixed, and the mixture was centrifuged at 3000 rpm for 15 minutes. The compound of the present invention in the centrifuged supernatant was quantified by LC/MS/MS or solid-phase extraction (SPE)/MS. The amount of the compound of the present invention remained after the reaction was calculated with the amount of the compound at 0 minutes of the reaction defined as 100%.

[2] = Metabolic stability test (rat); format: in vitro ADME
Procedure: [Worded in the source for another species; this species is reported under the same test.] as §2, §3

NAFLD patients = conditions: cited from earlier work
healthy subjects = conditions: repeated administration to healthy subjects; cited from earlier work

SMILES	IC50 (recombinant human ACC1)	IC50 (recombinant human ACC2)	Amount of compound remained, Human [1]	Amount of compound remained, Rat [2]	Plasma triglyceride concentration (NAFLD patients)	platelet concentration (healthy subjects)	Plasma triglyceride concentration (NAFLD patients; phase II study over 12 weeks)
CC(=O)N[C@@H](C)CC[C@H]1OC[C@H](Oc2nc3c(F)cc(OCC(F)F)c(F)c3n2C)C[C@@H]1F [Compound I-2]	2400 nM	10 nM	–	–	–	–	–
CC(=O)N[C@@H](C)CC[C@H]1OC[C@H](Oc2nc3c(F)cc(OCC(F)F)c(F)c3n2C)CC1(F)F [Compound I-9]	2600 nM	13 nM	–	–	–	–	–
CC(=O)N[C@@H](C)CC(F)(F)[C@@H]1CC[C@@H](Oc2nc3c(F)cc(OCC(F)F)c(F)c3n2C)CO1 [Compound I-10]	> 100000 nM	89 nM	–	–	–	–	–
C[C@@H](CCC1OCC(Oc2nc3c(F)cc(OCC(F)F)c(F)c3n2C)CO1)NC(N)=O (stereo partly drawn) [Compound I-11]	7000 nM	9.6 nM	95.8%	94.5%	–	–	–
COc1cc(C(=O)N2CCC3(CC2)CC(=O)c2cc(-c4cncc(C(=O)O)c4)ccc2O3)cc2c1c(C)cn2C1CC1 [MK-4074]	–	–	–	–	elevated plasma triglyceride concentration	–	–
Cc1nc2ccc(C(=O)N3CCC4(CC3)CC(=O)c3c(cnn3C(C)C)C4)cc2[nH]1 [PF-05175157]	–	–	–	–	–	reduced a platelet concentration	–
COc1ccccc1[C@H](Cn1c(=O)n(C(C)(C)C(=O)O)c(=O)c2c(C)c(-c3ncco3)sc21)OC1CCOCC1 [firsocostat]	–	–	–	–	–	–	elevated plasma triglyceride concentration

Continued by falling IC50 (recombinant human ACC1), values first:

IC50 (recombinant human ACC1)	IC50 (recombinant human ACC2)	Amount of compound remained, Human [1]	Amount of compound remained, Rat [2]	SMILES	Plasma triglyceride concentration (NAFLD patients)	platelet concentration (healthy subjects)	Plasma triglyceride concentration (NAFLD patients; phase II study over 12 weeks)
25000 nM	180 nM	89.1%	74.7%	CC(=O)N[C@H](C)C(F)(F)C[C@H]1CC[C@H](Oc2nc3c(F)cc(OCC(F)F)c(F)c3n2C)CO1 [Compound I-7]	–	–	–
6900 nM	8.9 nM	98.9%	83.4%	Cn1c(O[C@H]2CC[C@H](OC[C@H](CF)NC(N)=O)CC2)nc2c(F)cc(OC3CC3)cc21 [Compound I-5]	–	–	–
6200 nM	17 nM	83.6%	85.4%	C[C@@H](CO[C@H]1CC[C@H](Oc2nc3c(Cl)cc(OC4CC4)cc3n2C)CC1)NC(N)=O [Compound I-8]	–	–	–
2800 nM	–	80.3%	82.6%	CC(=O)N[C@@H](C)CO[C@H]1CC[C@H](Oc2nc3c(Cl)cc(OC4CC4)cc3n2C)CC1 [Compound I-3]	–	–	–
2700 nM	4.7 nM	93.4%	87.3%	CC(=O)N[C@@H](CF)CO[C@H]1CC[C@H](Oc2nc3c(F)cc(OC4CC4)cc3n2C)CC1 [Compound I-4]	–	–	–
2700 nM	6.6 nM	94.8%	78%	CC(=O)N[C@@H](C)CO[C@H]1CC[C@H](Oc2nc3c(F)cc(OCC(F)F)c(F)c3n2C)CC1 [Compound I-14]	–	–	–
1700 nM	3.8 nM	80.2%	76.2%	CC(=O)N[C@@H](C)CO[C@H]1CC[C@H](Oc2nc3c(F)cc(OC4CC4)cc3n2C)CC1 [Compound I-15]	–	–	–
920 nM	12 nM	93.2%	74%	CC(=O)N[C@@H](C)C(F)(F)C[C@H]1CC[C@H](Oc2nc3c(F)cc(OCC(F)F)c(F)c3n2C)CO1 [Compound I-6]	–	–	–
320 nM	–	–	–	CC(=O)N[C@@H](C)CO[C@H]1CC[C@H](Oc2nc3c(F)cc(OC4CCC4)cc3n2C)CC1 [Compound I-1]	–	–	–
